We go through 1 substance from patent publication US20030129193A1 (priority 2001, published 2003).

The test concerns bEnd 3 cells. Description: Cell bound coagulation assay, stimulated endothelial cells. It is filed as cell-based, mouse. The conditions noted are these: for Factor Xa generation: mix with 0.5 μg/ml factor VIIa; for Factor Xa generation due to Factor VIIa production: mix with 2 μg/ml factor VII and 0.01 μg/ml factor VIIa, factor VII background subtracted. The protocol:
To assay the coagulation induction of stimulated versus unstimulated endothelial cells, bEnd 3 cells were seeded in 48 well tissue culture plates at a density of 1×10^4 cells per well and allowed to adhere overnight. Cells were stimulated with endotoxin (0.5 μg/ml and 10 μg/ml) or TNFα (500 U/ml) for 4 h at 37° C. […] After incubation for 45 min at room temperature, cells were washed and incubated with various coagulation factor mixes as follows: (1) 0.5 μg/ml factor VIIa in a mix containing 2.8 μg/ml factor IX, 3.4 μg/ml factor X, 50 μM phospholipids, in calcium buffer (as specified above); (2) 0.01 μg/ml factor VIIa in a mix as in (1); (3) 2 μg/ml factor VII (Calbiochem-Novabiochem, San Diego, Calif.) in a mix as in (1); (4) 2 […] factor VII, 0.01 μg/ml factor VIIa in a mix as in (1). The supernatant of wells was transferred into a 96 well ELISA plate. Substrate S2765 was added and Factor Xa generation measured alongside different concentrations of Factor Xa standard (7 nkatS2222; 0.7 nkatS2222; 0.07 nkatS2222). OD405nm values were calculated as nkatS2222 Factor Xa from the Factor Xa standard curve.
bEnd 3 cells were seeded in 48 well tissue culture plates at a density of 1×10^4 cells per well and allowed to adhere overnight. Cells were stimulated with endotoxin (0.5 μg/ml and 10 μg/ml) or TNFα (500 U/ml) for 4 h at 37° C. […] After incubation for 45 min at room temperature, cells were washed and incubated with coagulation factor mix as follows: 0.5 μg/ml factor VIIa in a mix containing 2.8 μg/ml factor IX, 3.4 μg/ml factor X, 50 μM phospholipids, in calcium buffer; supernatant of wells was transferred into a 96 well ELISA plate. Substrate S2765 was added and Factor Xa generation measured alongside different concentrations of Factor Xa standard (7 nkatS2222; 0,7 nkatS2222; 0,07 nkatS2222). OD405nm values were calculated as nkatS2222 Factor Xa from the Factor Xa standard curve.

“tTF: extracellular domain of the mature Tissue Factor protein (amino acid 1-219)”: the “Factor Xa generation” value came to 2.00 nkats2222 (stimulation with 0.5 μg/ml LPS), 2.91 nkats2222 (stimulation with 10 μg/ml LPS), 0.40 nkats2222 (stimulation with Medium) and 0.67 nkats2222 (stimulation with TNFα (500 U/ml)). Further, the “Factor Xa generation due to Factor VIIa production” value by setting is: (stimulation with 0.5 μg/ml LPS) 3.00 nkats2222; (stimulation with Medium) 0.70 nkats2222; (stimulation with TNFα) 1.91 nkats2222.
